Source: ChEMBL document CHEMBL1138401, “Novel nucleotide triphosphates as potent P2Y2 agonists with enhanced stability over UTP” (Bioorg Med Chem Lett, 2007)

Legend:
[1] = target: P2Y purinoceptor 2 (Homo sapiens, UniProt P41231); assay: Agonist activity at human P2Y2 receptor expressed in human 1321N1 by FLIPR assay; type: functional
[2] = target: P2Y purinoceptor 1 (Homo sapiens, UniProt P47900); assay: Agonist activity at human cloned P2Y1 receptor expressed in human 1321N1 by FLIPR assay; type: functional
[3] = target: P2Y purinoceptor 4 (Homo sapiens, UniProt P51582); assay: Agonist activity at human cloned P2Y4 receptor expressed in human 1321N1 by FLIPR assay; type: functional
[4] = Agonist activity at human cloned P2Y6 receptor expressed in human 1321N1 by FLIPR assay; type: functional
[5] = Metabolic stability in human bronchial epithelial cells after 120 mins; type: ADME, cell-based, Epithelial cell; settings: read-out: Stability
[6] = Metabolic stability in human bronchial epithelial cells after 180 mins; type: ADME, cell-based, Epithelial cell; settings: read-out: Stability

Sequence of P2Y purinoceptor 4 (P51582 whole entry): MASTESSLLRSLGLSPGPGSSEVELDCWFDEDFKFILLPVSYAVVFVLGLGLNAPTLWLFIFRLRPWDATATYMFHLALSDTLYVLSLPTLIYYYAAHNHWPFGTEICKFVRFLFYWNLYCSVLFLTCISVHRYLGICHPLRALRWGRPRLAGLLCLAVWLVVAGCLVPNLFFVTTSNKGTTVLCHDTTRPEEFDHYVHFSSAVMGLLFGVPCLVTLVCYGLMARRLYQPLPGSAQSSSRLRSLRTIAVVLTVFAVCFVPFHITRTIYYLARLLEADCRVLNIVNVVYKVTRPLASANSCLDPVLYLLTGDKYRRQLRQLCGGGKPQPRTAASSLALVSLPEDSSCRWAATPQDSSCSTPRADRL
Sequence of P2Y purinoceptor 2 (P41231 whole entry): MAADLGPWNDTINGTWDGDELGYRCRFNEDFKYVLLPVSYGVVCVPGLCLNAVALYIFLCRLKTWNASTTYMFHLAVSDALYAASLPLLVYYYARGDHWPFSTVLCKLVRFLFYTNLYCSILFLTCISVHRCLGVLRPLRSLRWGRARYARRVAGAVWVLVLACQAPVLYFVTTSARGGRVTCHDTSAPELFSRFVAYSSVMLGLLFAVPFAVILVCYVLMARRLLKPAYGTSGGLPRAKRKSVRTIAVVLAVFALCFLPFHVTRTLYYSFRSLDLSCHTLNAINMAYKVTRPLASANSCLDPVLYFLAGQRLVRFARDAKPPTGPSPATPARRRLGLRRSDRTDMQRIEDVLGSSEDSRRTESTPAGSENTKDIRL
Sequence of P2Y purinoceptor 1 (P47900 whole entry): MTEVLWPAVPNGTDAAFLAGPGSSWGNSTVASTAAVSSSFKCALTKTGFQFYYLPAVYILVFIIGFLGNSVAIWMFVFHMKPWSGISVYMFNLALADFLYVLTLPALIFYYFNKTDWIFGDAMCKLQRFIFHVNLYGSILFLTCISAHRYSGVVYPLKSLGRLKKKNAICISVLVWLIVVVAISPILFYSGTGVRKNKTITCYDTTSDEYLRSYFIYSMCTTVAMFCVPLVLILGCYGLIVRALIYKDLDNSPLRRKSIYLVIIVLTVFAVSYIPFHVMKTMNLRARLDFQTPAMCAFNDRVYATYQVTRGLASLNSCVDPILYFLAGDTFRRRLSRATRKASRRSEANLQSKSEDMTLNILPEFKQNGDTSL

Row | SMILES | EC50 [1] [nM] | EC50 [2] [nM] | EC50 [3] [nM] | EC50 [4] [nM] | remaining at 2 h [5] [%] | remaining at 3 h [6] [%]
1 | COc1ccc2nc([C@@H]3O[C@H](COP(=O)(O)OP(=O)(O)OP(=O)(O)O)[C@@H](O)[C@H]3O)sc2c1 | 42 |  |  |  |  | 
2 | COc1cccc2sc([C@@H]3O[C@H](COP(=O)(O)OP(=O)(O)OP(=O)(O)O)[C@@H](O)[C@H]3O)nc12 | 700 |  |  |  |  | 
3 | Cc1ccc2oc([C@@H]3O[C@H](COP(=O)(O)OP(=O)(O)OP(=O)(O)O)[C@@H](O)[C@H]3O)nc2c1 | 390 |  |  |  |  | 
4 | O=P(O)(O)OP(=O)(O)OP(=O)(O)OC[C@H]1O[C@@H](c2nc3ccccc3s2)[C@H](O)[C@@H]1O | 22 | > 20000 | 4120 | > 20000 | 50 | 20
5 | O=P(O)(O)OP(=O)(O)OP(=O)(O)OC[C@H]1O[C@@H](c2nc3ccc(Cl)cc3s2)[C@H](O)[C@@H]1O | 8 |  |  |  |  | 
6 | O=P(O)(O)OP(=O)(O)OP(=O)(O)OC[C@H]1O[C@@H](c2nc3cc(F)ccc3s2)[C@H](O)[C@@H]1O | 3 |  |  |  |  | 
7 | O=P(O)(O)OP(=O)(O)OP(=O)(O)OC[C@H]1O[C@@H](c2nc3cc(C(F)(F)F)ccc3s2)[C@H](O)[C@@H]1O | 10 | > 20000 | > 20000 | > 20000 |  | 
8 | Cn1c([C@@H]2O[C@H](COP(=O)(O)OP(=O)(O)OP(=O)(O)O)[C@@H](O)[C@H]2O)nc2ccccc21 | 200 |  |  |  |  | 
9 | O=P(O)(O)OP(=O)(O)OP(=O)(O)OC[C@H]1O[C@@H](c2nc3c(F)cc(Cl)cc3s2)[C@H](O)[C@@H]1O | 7 | > 20000 | 4230 | > 20000 |  | 
10 | O=c1c2cc(F)ccc2ccn1[C@@H]1O[C@H](COP(=O)(O)OP(=O)(O)OP(=O)(O)O)[C@@H](O)[C@H]1O |  |  |  |  | 70 | 50
11 | O=c1ccn([C@@H]2O[C@H](COP(=O)(O)OP(=O)(O)OP(=O)(O)O)[C@@H](O)[C@H]2O)c(=O)[nH]1 [URIDINE TRIPHOSPHATE] |  | > 2000 |  | 424 |  | 
